Measurements from article PMC10649927, “Integration of Deep Learning and Sequential Metabolism to Rapidly Screen Dipeptidyl Peptidase (DPP)-IV Inhibitors from Gardenia jasminoides Ellis” (Molecules, 2023).

Target: T1, human recombinant DPP-IV (Homo sapiens, UniProt P27487)
T1 construct: gene DPP4; commercial recombinant human enzyme from ProSpec (Rehovot, Israel)
Assay: Gly-Pro-pNA hydrolysis, absorbance at […] nm
Assay type: biochemical
Conditions: Gly-Pro-pNA substrate (20 µL of 1.75 mM), 0.1 M Tris-HCl, 0.1 M NaCl, 1 mM EDTA, pH 8.0, 37 °C, 30 min

T1 sequence (P27487 29-766 limits assumed): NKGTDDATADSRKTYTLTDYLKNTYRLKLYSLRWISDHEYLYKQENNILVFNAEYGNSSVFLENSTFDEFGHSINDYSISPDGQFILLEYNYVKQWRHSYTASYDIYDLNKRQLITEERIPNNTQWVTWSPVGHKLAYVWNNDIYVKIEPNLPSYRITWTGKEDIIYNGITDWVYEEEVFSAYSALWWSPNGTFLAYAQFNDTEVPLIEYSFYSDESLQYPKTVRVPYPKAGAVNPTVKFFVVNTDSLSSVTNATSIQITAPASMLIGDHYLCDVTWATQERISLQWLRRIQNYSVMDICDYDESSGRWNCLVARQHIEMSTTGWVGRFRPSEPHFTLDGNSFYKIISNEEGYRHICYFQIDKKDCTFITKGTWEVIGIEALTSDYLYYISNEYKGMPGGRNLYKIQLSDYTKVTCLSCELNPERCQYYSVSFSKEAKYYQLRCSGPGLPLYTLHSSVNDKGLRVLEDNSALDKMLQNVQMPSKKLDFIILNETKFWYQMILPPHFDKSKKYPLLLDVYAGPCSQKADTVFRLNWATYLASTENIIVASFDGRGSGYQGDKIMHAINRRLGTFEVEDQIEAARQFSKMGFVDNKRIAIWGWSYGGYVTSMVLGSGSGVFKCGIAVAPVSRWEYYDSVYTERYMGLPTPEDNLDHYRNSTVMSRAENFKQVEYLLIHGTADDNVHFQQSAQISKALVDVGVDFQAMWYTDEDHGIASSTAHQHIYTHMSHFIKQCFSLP

Row | Compound | % inhibition at 1 mM
1 | O=C(O)C1=CO[C@@H](O[C@@H]2O[C@H](CO)[C@@H](O)[C@H](O)[C@H]2O)[C@@H]2C(CO)=C[C@@H](O)[C@H]12 [compound 3, scandoside] | the six GJE compounds inhibited the activity of DPP-IV
2 | O=C(O)C1=CO[C@@H](O[C@@H]2O[C@H](CO)[C@@H](O)[C@H](O)[C@H]2O)[C@@H]2C(CO)=CC[C@H]12 [compound 4, geniposidic acid] | the six GJE compounds inhibited the activity of DPP-IV
3 | COC(=O)C1=CO[C@@H](O[C@@H]2O[C@H](CO)[C@@H](O)[C@H](O)[C@H]2O)[C@H]2[C@@H]1[C@H](O)C[C@]2(C)O [compound 5, shanzhiside methyl ester] | the six GJE compounds inhibited the activity of DPP-IV
4 | C[C@]1(O)C[C@@H](O)[C@@H]2C(C(=O)O)=CO[C@@H](O[C@@H]3O[C@H](CO)[C@@H](O)[C@H](O)[C@H]3O)[C@@H]21 [compound 6, shanzhiside] | the six GJE compounds inhibited the activity of DPP-IV
